Experimental data as given in US20030100772A1, “Oxygen-containing heterocyclic compounds” (priority 2000, published 2003).

Experiments:
[1] = biological target: T1, recombinant human PDE IV enzyme (HSPDE4A4B) (Homo sapiens, UniProt P27815); test: Inhibition test on recombinant human PDE IV enzyme; format: biochemical; conditions: [3H]cAMP 1 μmol/L substrate, read-out: enzyme inhibitory activity
T1 construct: made in house; host or cells: Sf9 insect cells
Procedure: Inhibition Test on Recombinant Human PDE IV Enzyme
Human phosphodiesterase cDNA (HSPDE4A4B) was isolated from HL-60 cells. The expected amino acid sequence is the same as that (HSPDE4A5) reported by G. Bolger et al. [Mol. Cell Biol. 13, p. 6558 (1993)]. This recombinant protein was expressed in Sf9 insect cells. The PDE activity was determined by the following two step process according to the method by R. L. Kincaid and V. C. Manganiello [Method. Enzymol., 159, pp. 457-470 (1988)]. Using [^3H]cAMP (final concentration: 1 μmol/L) as a substrate, the reaction was conducted in a standard mixture containing N,N-bis(2-hydroxyethyl)-2-aminoethanesulfonic acid (50 mmol/L, pH 7.2), MgCl2 (1 mmol/L) and soybean trypsin inhibitor (0.1 mg/mL). The reaction was started by addition of the enzyme, and the incubation was conducted at 30° C. for 10 to 30 minutes. The reaction was terminated with hydrochloric acid, and the formed 5′-AMP was completely decomposed with […]. After chromatography with DEAE-Sephadex A-25, the eluted [^3H]-adenosine was counted by a scintillation counter. The test compounds were added after dissolved in DMSO (concentration: 1.7%).

T1 sequence (P27815 whole entry): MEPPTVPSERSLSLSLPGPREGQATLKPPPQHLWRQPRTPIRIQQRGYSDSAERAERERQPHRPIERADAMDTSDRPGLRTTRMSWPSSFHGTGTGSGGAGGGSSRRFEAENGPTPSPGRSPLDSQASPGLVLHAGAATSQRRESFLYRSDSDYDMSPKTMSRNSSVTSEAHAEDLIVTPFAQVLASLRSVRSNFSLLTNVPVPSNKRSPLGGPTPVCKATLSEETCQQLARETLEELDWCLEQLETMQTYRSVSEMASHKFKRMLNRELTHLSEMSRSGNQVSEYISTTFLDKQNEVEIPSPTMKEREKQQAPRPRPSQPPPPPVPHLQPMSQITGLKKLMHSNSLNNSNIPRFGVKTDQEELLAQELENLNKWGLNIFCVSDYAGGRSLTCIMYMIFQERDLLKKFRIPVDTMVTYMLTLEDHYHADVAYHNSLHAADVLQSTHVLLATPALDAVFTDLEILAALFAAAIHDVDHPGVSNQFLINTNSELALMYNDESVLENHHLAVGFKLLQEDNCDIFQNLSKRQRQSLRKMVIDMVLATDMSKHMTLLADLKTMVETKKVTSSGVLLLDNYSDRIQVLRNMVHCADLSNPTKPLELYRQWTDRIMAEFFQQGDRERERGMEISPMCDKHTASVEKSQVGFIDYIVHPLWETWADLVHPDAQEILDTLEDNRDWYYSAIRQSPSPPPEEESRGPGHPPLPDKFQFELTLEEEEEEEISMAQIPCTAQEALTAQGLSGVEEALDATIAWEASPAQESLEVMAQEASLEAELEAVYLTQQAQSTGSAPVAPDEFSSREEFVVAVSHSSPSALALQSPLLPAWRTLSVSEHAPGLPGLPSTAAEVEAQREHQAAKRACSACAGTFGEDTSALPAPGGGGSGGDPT

Row | inhibition at 1 µM ([1]; concentration of 1 μmol/L) | melting point | inhibition at 10 µM ([1]; drug concentration of 10 μmol/L) | Compound
1 | ≥ 99% |  |  | CCOC(=O)C=CC1(c2ccc(OC)c3c2OCCO3)CCC(=O)CC1 [Compound 13, Ethyl 3-[1-(8-methoxy-1,4-benzodioxan-5-yl)-4-oxocyclohexyl]acrylate]
2 |  | 243 to 244 °C |  | COc1ccc(C2(C3CCCCC3=O)CCC(C(=O)O)CC2)c2c1OCCO2 (single isomer, unassigned) [Compound 9a, 4-(Cyclohexanon-2-yl)-4-(8-methoxy-1,4-benzodioxan-5-yl)-cyclohexanecarboxylic Acid]
3 |  | 241 to 243 °C | ≥ 30% | COc1ccc(C2(C3CCCC3=O)CCC(C(=O)O)CC2)c2c1OCCO2 (centres unmarked) [Compound 8, 4-(Cyclopentanon-2-yl)-4-(8-methoxy-1,4-benzodioxan-5-yl)-cyclohexanecarboxylic Acid]
4 |  | 222 to 223 °C |  | COc1ccc(C2(C3CCCCC3=O)CCC(C(=O)O)CC2)c2c1OCCO2 (single isomer, unassigned) [Compound 9b, 4-(Cyclohexanon-2-yl)-4-(8-methoxy-1,4-benzodioxan-5-yl)-cyclohexanecarboxylic Acid]
